Reference: the supplement of paper PMC11061612

Experiments:
[1] = system: DEL (T-Cell Non-Hodgkin's Lymphoma); assay: Bliss excess, mean over the matrix (fraction); higher = more synergy
Method in brief: (§1)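 Cell lines grown in DMEM/F12 or RPMI with 10% FBS were plated in 1536-well plates and held 24 hours at 37°C, 5% CO2 before 72 hours of exposure to two-drug dose matrices, with DMSO typically at 0.2%. CellTiter-Glo 2.0 luminescence gave viability, which was converted to inhibition. Vehicle wells were set to 0 and blank wells to 1. Combination Emax is the second-highest inhibition in the matrix, and Bliss excess is the observed combination effect minus the expected EA + EB − EA·EB, where EA and EB are the single-agent effects.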

[2] = system: EC-GI-10 (Esophageal Squamous Cell Carcinoma); assay: as above
Method in brief: as §1

[3] = system: TE-9 (Esophageal Squamous Cell Carcinoma); assay: as above
Method in brief: as §1

[4] = system: CAL-148 (Breast Carcinoma); assay: as above
Method in brief: as §1

[5] = system: KYSE-520 (Esophageal Squamous Cell Carcinoma); assay: as above
Method in brief: as §1

[6] = system: HO-1-N-1 (Oral Cavity Carcinoma); assay: as above
Method in brief: as §1

KELLY (Neuroblastoma) = assay: combination Emax (second highest fraction inhibited in the dose matrix, 72 h); higher = more inhibition; extreme values may be limits of the assay
Method in brief: as §1

[7] = system: CaR-1 (Colorectal Carcinoma); assay: as above
Method in brief: as §1

[8] = system: B-CPAP (Thyroid Gland Carcinoma); assay: as above
Method in brief: as §1

[9] = system: Daoy (Other Solid Carcinomas); assay: as above
Method in brief: as §1

[10] = system: LNCaP-Clone-FGC (Prostate Carcinoma); assay: as above
Method in brief: as §1

[11] = system: NCI-H2085 (Non-Small Cell Lung Carcinoma); assay: as above
Method in brief: as §1

[12] = system: RO82-W-1 (Thyroid Gland Carcinoma); assay: as above
Method in brief: as §1

[13] = system: MDA-MB-361 (Breast Carcinoma); assay: as above
Method in brief: as §1

[14] = system: KP-1N (Pancreatic Carcinoma); assay: as above
Method in brief: as §1

[15] = system: HCC-78 (Lung Adenocarcinoma); assay: as above
Method in brief: as §1

[16] = system: KURAMOCHI (Ovarian Carcinoma); assay: as above
Method in brief: as §1

[17] = system: HO-1-N-1 (Oral Cavity Carcinoma); assay: as above
Method in brief: as §1

[18] = system: NCI-H82 (Small Cell Lung Carcinoma); assay: as above
Method in brief: as §1

[19] = system: SK-ES-1 (Ewing's Sarcoma); assay: as above
Method in brief: as §1
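Wherever Bliss excess, mean over the matrix is given: after 72 h of two-drug dosing.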

Row | SMILES | Bliss excess [1] | Bliss excess [2] | Bliss excess [3] | Bliss excess [4] | Bliss excess [5] | Bliss excess [6] | combination Emax (KELLY (Neuroblastoma)) | combination Emax [7] | combination Emax [8] | combination Emax [9] | combination Emax [10] | combination Emax [11] | combination Emax [12] | combination Emax [13] | combination Emax [14] | combination Emax [15] | combination Emax [16] | combination Emax [17] | combination Emax [18] | combination Emax [19]
1 | CCc1c2c(nc3ccc(O)cc13)-c1cc3c(c(=O)n1C2)COC(=O)[C@]3(O)CC [SN-38] + CN(C)CCCOc1ccc(-c2ccc3ncc4c(c3c2)n(C2CCOCC2)c(=O)n4C)cn1 [AZD0156] (first compound max 0.3 µM, 7x7, partner max 1 µM) | 0.117 | 0.0134 | 0.0065 | -0.0174 | -0.0071 | 0.0488 | 0.869 | 0.876 | 0.867 | 1 | 0.76 | 0.221 | 0.46 | 0.397 | 0.627 | 0.924 | 0.659 | 1 | 0.824 | 1
2 | C[C@@H](c1ccc2nccn2c1)n1nnc2ncc(-c3cnn(C)c3)nc21 [Savolitinib] + CC1(C)CCC(CN2CCN(c3ccc(C(=O)NS(=O)(=O)c4ccc(NCC5CCOCC5)c([N+](=O)[O-])c4)c(Oc4cnc5[nH]ccc5c4)c3)CC2)=C(c2ccc(Cl)cc2)C1 [Venetoclax] (first compound max 1 µM, 7x7, partner max 1 µM) | -0.0385 | -0.0547 | -0.0307 | -0.0359 | -0.0774 | -0.0105 | 0.357 | 0.171 | 0.155 | 0.152 | 0.0523 | 0.107 | 0.169 | 0.119 | 0.13 | 0.145 | 0.15 | 0.158 | 0.225 | 0.197
3 | C[C@@H](c1ccc2nccn2c1)n1nnc2ncc(-c3cnn(C)c3)nc21 [Savolitinib] + Cc1c2c(nn1C)CSCc1cc(n(C)n1)CSc1cc(c3ccccc3c1)OCCCc1c(C(=O)O)n(C)c3c-2c(Cl)ccc13 [AZD5991] (first compound max 1 µM, 7x7, partner max 1 µM) | -0.0441 | -0.07 | -0.0683 | 0.0087 | -0.0615 | -0.0373 | 0.805 | 0.154 | 0.211 | 0.126 | 0.163 | 0.158 | 0.169 | 0.735 | 0.194 | 0.18 | 0.286 | 0.488 | 0.875 | 0.781
4 | Cn1cnc2c(F)c(Nc3ccc(Br)cc3Cl)c(C(=O)NOCCO)cc21 [Selumetinib] + C=CCn1c(=O)c2cnc(Nc3ccc(N4CCN(C)CC4)cc3)nc2n1-c1cccc(C(C)(C)O)n1 [AZD1775] (first compound max 10 µM, partner max 1 µM) | -0.043 | -0.0424 | -0.0343 | -0.0543 | 0.0054 | -0.0206 | 1 | 0.288 | 0.472 | 0.844 | 0.625 | 0.271 | 0.183 | 0.819 | 0.257 | 0.345 | 0.65 | 0.718 | 0.855 | 0.944
5 | Cn1cnc2c(F)c(Nc3ccc(Br)cc3Cl)c(C(=O)NOCCO)cc21 [Selumetinib] + CC(C)n1c(=O)n(C)c2cnc3cc(F)c(-c4ccc(OCCCN5CCCCC5)nc4)cc3c21 [AZD1390] (first compound max 10 µM, 7x7, partner max 0.3 µM) | 0.0087 | -0.0359 | -0.0228 | -0.0421 | -0.0115 | 0.0053 | 0.22 | 0.188 | 0.254 | 0.126 | 0.0956 | 0.191 | 0.125 | 0.12 | 0.102 | 0.123 | 0.194 | 0.506 | 0.177 | 0.19
6 | Cn1cnc2c(F)c(Nc3ccc(Br)cc3Cl)c(C(=O)NOCCO)cc21 [Selumetinib] + CCN(CCO)CCCOc1ccc2c(Nc3cc(CC(=O)Nc4cccc(F)c4)[nH]n3)ncnc2c1 [AZD2811] (first compound max 10 µM, 7x7, partner max 1 µM) | 0.263 | 0.0087 | -0.0347 | -0.029 | 0.0547 | -0.0692 | 0.645 | 0.406 | 0.346 | 0.356 | 0.284 | 0.492 | 0.203 | 0.193 | 0.135 | 0.267 | 0.251 | 0.737 | 0.442 | 0.96
7 | Cn1cnc2c(F)c(Nc3ccc(Br)cc3Cl)c(C(=O)NOCCO)cc21 [Selumetinib] + C[C@@H]1COCCN1C2=NC(=NC(=C2)C3(CC3)[S@](=N)(=O)C)C4=C5C=CNC5=NC=C4 [AZD6738] (first compound max 10 µM, 7x7, partner max 10 µM) | 0.0172 | 0.0623 | -0.0063 | -0.0407 | 0.0227 | -0.0475 | 0.952 | 0.395 | 0.421 | 0.882 | 0.673 | 0.35 | 0.266 | 0.795 | 0.175 | 0.537 | 0.554 | 0.763 | 0.756 | 0.82
